Test results published in ChEMBL document CHEMBL1201862, “PubChem BioAssay data set” (2004).
Active and inactive are the calls of the source.

How the values were obtained:
Caspase-3 = target: T1, Caspase-3 (Homo sapiens, UniProt P42574); assay type: functional;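 also: Dose-response selectivity test against caspase-3 for candidate inhibitors of sentrin-specific proteases (SENPs)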
T1 sequence (P42574 whole entry): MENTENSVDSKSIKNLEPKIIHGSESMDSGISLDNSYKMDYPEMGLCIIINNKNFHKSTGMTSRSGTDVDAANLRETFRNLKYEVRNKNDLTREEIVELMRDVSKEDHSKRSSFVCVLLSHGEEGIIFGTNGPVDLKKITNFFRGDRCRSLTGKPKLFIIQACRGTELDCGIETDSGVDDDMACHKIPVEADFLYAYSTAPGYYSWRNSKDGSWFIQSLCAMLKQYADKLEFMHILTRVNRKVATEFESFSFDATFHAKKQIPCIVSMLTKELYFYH

[1] = target: T2, Sentrin-specific protease 8 (Homo sapiens, UniProt Q96LD8); assay type: functional;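 also: luminescence read-out of SENP8 inhibition, dose-response confirmation following an ultra-high-throughput screen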
T2 sequence (Q96LD8 whole entry): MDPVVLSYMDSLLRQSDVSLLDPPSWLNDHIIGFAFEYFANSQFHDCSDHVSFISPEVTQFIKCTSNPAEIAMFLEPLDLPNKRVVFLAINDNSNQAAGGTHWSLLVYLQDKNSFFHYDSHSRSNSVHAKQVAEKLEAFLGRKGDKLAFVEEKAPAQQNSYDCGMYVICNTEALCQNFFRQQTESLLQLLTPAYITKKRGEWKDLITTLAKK

[2] = target: T3, Calpain-2 catalytic subunit (Sus scrofa, UniProt P43367); assay: m-calpain protease blockers, concentration series – biochemical, fluorogenic peptide substrate, dose response (AID 1420); assay type: functional
T3 sequence (P43367 whole entry): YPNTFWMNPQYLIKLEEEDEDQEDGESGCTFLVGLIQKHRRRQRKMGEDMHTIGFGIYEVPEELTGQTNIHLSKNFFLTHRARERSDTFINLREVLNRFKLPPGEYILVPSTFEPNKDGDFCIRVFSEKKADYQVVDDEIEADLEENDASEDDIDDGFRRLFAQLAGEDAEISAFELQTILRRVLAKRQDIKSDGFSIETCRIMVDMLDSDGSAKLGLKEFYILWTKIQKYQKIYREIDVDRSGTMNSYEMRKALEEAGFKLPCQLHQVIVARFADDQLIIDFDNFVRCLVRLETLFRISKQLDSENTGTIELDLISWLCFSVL

[3] = target: T4, Sentrin-specific protease 7 (Homo sapiens, UniProt Q9BQF6); assay type: functional;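 also: Luminescence-based dose-response confirmation of ultra-high-throughput screening hits, measuring inhibition of SENP7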
T4 sequence (Q9BQF6 whole entry): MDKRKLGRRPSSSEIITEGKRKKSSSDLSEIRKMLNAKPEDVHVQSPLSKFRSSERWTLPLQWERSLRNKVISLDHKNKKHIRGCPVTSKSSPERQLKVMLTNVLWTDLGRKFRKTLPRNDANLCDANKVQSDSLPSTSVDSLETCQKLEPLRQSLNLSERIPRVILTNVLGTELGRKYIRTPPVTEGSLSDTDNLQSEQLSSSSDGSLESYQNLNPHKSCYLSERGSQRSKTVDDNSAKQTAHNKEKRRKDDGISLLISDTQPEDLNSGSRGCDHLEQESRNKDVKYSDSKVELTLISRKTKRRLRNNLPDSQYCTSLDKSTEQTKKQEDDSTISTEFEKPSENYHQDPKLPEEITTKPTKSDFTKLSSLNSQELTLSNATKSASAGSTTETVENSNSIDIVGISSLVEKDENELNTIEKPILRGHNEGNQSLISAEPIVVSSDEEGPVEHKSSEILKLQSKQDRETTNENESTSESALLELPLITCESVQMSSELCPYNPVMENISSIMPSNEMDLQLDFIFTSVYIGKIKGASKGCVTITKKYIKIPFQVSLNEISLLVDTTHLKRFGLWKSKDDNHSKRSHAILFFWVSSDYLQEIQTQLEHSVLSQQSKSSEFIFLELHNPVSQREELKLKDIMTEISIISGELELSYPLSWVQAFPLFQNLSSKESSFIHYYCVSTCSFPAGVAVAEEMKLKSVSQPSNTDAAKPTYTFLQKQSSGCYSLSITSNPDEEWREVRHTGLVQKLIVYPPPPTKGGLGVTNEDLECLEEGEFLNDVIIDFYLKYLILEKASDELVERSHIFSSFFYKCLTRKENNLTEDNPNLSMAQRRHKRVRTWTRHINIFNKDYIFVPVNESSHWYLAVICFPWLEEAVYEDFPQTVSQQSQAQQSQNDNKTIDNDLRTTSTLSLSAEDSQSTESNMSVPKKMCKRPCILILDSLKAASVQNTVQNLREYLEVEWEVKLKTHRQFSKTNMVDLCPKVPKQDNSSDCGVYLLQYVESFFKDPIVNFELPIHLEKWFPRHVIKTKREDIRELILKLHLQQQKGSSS

[4] = target: T5, Sentrin-specific protease 6 (Homo sapiens, UniProt Q9GZR1); assay type: functional;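 also: Luminescence-based dose-response confirmatory assay of SENP6 inhibition, following up an ultra-high-throughput screen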
T5 sequence (Q9GZR1 whole entry): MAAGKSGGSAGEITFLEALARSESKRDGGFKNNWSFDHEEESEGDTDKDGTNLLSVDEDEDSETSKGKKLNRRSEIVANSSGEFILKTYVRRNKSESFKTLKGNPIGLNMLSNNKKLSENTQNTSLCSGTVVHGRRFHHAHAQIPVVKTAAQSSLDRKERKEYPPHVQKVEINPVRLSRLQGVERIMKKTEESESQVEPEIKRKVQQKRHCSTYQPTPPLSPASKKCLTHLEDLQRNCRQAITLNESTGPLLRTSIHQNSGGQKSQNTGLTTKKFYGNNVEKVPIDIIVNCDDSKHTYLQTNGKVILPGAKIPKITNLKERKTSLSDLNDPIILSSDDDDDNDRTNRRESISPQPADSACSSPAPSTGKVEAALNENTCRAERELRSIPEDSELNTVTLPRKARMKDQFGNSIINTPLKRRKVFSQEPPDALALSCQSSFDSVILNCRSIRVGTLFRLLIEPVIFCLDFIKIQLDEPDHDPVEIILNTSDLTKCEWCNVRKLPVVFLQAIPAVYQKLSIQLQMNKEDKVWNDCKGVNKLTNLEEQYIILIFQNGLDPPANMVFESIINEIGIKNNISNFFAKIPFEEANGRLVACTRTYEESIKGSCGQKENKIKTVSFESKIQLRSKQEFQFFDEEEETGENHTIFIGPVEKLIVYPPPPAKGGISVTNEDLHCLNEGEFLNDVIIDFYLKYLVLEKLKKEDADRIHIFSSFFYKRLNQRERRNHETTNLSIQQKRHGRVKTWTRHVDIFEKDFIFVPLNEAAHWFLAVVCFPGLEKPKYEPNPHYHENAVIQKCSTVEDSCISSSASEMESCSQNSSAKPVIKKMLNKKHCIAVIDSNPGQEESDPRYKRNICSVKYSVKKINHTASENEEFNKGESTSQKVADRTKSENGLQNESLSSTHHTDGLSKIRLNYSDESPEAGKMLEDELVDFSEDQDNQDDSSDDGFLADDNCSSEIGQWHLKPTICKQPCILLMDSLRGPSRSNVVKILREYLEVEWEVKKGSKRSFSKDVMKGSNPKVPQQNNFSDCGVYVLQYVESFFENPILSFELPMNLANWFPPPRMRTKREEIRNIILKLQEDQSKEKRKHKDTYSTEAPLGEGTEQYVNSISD

Prothrombin = Prothrombin (Homo sapiens, UniProt P00734); assay: Thrombin 1536 HTS Dose Response Confirmation. [Related pubchem assays: 1046 (Thrombin 1536 HTS; hits were confirmed in this assay)]; assay type: functional
Cytochrome P450 3A4 = Cytochrome P450 3A4 (Homo sapiens, UniProt P08684); details: Potency;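 also: confirmatory qHTS run detecting inhibitors and substrates of CYP3A4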
Cytochrome P450 3A4, sequence (P08684 whole entry): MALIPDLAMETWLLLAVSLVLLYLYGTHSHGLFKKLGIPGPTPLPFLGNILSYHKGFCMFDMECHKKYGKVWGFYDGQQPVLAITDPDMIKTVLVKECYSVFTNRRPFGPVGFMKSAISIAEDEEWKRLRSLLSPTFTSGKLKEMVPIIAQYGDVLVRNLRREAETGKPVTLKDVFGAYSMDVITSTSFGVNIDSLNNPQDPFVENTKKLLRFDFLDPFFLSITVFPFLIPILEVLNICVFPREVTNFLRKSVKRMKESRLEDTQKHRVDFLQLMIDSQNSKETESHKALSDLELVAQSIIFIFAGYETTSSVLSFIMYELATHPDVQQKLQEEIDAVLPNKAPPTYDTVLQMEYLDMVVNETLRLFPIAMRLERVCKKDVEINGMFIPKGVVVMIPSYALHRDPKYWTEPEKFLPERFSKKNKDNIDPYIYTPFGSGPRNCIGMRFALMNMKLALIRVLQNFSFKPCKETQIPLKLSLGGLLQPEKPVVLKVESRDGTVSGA

HeLa = assay: ATP-based viability loss in HeLa cells – cell-based, CellTiter-Glo luminescence, cherry-pick samples, cytotoxicity control for MITF activator project, dose response (AID 540259); assay type: functional; details: Homo sapiens
[5] = target: Voltage-dependent T-type calcium channel subunit alpha-1H (Homo sapiens, UniProt O95180); assay type: functional;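 also: channel activity triggered by adding a high calcium stimulation buffer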
Voltage-dependent T-type calcium channel subunit alpha-1H, sequence (O95180 whole entry): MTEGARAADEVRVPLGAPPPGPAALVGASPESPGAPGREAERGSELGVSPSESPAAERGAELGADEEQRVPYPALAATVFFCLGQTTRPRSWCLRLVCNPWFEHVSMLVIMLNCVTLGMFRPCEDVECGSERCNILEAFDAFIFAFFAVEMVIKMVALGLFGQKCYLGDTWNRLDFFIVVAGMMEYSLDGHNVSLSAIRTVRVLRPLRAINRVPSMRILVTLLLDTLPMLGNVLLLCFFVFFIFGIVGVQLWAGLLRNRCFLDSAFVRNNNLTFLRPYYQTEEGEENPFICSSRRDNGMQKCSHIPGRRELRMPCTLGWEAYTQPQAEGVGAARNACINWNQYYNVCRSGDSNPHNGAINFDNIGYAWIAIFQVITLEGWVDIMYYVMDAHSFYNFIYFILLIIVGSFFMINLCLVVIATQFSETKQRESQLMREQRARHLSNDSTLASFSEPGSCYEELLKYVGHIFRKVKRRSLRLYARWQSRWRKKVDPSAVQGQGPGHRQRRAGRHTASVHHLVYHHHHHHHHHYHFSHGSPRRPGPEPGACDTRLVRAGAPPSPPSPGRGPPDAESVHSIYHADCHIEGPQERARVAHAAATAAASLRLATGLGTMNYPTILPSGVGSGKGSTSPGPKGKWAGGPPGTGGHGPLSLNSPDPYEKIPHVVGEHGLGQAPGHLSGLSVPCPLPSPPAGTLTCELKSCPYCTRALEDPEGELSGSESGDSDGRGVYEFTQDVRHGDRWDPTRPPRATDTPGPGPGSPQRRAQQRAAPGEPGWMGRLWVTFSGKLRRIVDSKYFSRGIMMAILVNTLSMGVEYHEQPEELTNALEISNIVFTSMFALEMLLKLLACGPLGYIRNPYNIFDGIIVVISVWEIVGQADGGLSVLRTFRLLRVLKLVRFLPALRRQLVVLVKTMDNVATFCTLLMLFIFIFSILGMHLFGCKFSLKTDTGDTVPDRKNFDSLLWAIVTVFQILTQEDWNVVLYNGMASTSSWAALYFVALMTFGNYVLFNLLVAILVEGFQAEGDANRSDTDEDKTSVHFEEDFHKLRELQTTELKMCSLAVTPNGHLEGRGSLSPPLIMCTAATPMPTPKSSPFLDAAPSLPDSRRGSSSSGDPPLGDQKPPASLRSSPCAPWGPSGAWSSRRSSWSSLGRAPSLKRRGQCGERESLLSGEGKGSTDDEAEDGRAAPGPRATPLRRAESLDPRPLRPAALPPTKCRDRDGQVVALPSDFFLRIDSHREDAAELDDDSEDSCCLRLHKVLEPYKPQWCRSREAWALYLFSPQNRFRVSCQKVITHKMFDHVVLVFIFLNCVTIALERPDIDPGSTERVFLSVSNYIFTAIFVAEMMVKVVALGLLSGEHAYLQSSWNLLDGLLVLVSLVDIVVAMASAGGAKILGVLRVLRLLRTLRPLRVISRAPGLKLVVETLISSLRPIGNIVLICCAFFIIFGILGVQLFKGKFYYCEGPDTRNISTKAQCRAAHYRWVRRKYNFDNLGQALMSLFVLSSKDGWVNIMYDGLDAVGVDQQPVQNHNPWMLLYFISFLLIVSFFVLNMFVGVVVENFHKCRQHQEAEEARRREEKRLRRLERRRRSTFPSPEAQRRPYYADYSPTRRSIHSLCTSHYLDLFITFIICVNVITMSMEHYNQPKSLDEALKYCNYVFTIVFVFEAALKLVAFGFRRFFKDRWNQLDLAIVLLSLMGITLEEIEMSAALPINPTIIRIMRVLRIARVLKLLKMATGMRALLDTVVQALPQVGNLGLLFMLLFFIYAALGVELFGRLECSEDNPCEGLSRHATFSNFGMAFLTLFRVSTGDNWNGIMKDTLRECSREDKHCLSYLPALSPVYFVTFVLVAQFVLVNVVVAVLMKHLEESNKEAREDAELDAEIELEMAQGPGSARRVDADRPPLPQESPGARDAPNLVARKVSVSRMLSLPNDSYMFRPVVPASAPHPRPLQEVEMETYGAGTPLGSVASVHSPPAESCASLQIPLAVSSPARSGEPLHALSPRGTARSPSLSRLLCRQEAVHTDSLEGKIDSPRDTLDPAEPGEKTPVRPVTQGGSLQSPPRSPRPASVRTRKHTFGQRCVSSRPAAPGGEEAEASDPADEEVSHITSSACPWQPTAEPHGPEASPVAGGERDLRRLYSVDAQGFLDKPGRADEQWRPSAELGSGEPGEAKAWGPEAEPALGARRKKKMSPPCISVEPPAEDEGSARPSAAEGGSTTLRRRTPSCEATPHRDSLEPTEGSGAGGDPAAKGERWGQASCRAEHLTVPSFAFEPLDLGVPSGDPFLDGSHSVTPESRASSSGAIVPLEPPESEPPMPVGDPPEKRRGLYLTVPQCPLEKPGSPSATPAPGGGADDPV

Protein skinhead-1 = target: T6, Protein skinhead-1 (Caenorhabditis elegans, UniProt P34707); assay type: functional
T6 sequence (P34707 whole entry): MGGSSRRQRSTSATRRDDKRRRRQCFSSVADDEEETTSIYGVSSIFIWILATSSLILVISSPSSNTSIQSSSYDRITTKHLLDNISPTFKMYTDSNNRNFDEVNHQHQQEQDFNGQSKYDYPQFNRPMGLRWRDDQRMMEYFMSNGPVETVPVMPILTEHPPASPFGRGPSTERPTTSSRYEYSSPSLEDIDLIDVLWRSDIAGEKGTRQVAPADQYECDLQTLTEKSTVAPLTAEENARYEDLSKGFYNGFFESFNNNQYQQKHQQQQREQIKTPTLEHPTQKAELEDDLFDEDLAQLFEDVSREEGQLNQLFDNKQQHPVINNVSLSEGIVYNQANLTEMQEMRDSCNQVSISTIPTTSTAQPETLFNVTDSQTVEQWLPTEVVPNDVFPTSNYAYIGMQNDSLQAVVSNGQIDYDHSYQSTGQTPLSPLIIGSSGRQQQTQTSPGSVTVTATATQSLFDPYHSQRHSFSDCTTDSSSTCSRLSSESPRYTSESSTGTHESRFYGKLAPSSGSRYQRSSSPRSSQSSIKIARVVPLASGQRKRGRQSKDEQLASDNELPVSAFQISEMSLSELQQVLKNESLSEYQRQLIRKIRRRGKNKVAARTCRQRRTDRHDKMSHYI

[6] = target: T7, Mannose-6-phosphate isomerase (Homo sapiens, UniProt P34949); assay: phosphomannose isomerase inhibition – biochemical, fluorescence intensity, confirmation (AID 1535)
T7 sequence (P34949 whole entry): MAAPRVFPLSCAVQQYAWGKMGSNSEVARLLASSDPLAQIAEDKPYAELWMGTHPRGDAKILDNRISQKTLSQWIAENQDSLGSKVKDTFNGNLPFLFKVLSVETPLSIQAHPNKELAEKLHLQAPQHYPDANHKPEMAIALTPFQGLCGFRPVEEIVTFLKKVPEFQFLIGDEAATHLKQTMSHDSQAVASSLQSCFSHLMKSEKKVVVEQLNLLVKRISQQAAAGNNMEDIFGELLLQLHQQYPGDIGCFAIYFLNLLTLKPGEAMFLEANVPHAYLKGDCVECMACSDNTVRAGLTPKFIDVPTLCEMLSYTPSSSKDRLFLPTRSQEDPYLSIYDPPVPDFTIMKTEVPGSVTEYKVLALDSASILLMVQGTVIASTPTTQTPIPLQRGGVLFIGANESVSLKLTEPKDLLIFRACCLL

[7] = THP-1 cell cytotoxicity, dose response, cytotoxicity control for non-replicating M. tuberculosis project (AID 489025); assay type: functional
H9c2 = assay: cells; assay type: functional, cell-based; details: Rattus norvegicus, H9c2, Myocardium
[8] = Vero E6 cell cytotoxicity, dose response, cytotoxicity control for non-replicating M. tuberculosis project, secondary assay (AID 492998); assay type: functional, VeroE6; details: Vero C1008
cells = assay type: functional
[9] = microbe, parasite or virus in culture; assay type: functional; details: Mycobacterium tuberculosis
[10] = Dd2 malaria parasite growth inhibition potency – SYBR Green, dry powder samples, dose response (AID 1159566); assay type: functional, cell-based;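 also: potency for growth inhibition with lower SYBR green DNA signal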
[11] = P. falciparum Dd2 growth inhibitors, dose response, SYBR Green, cherry-picked samples (AID 1159567); assay type: functional, cell-based
[12] = growth inhibition of yeast DHODH-expressing 3D7 parasites – SYBR Green, dry powder samples, dose response (AID 1159570); assay type: functional, cell-based;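 also: parasite growth measured after 72 hours of compound exposure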
[13] = toxicity to human HepG2 hepatoma cells – cell-based, plate reader, dry powder samples, cytotoxicity control, dose response (AID 1159569); assay type: functional;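 also: inhibitor potency with signal falling toward the positive control level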
[14] = toxicity to human hepatoma HepG2 cells – cell-based, cherry-picked samples, cytotoxicity control, dose response (AID 1159577); assay type: functional
[15] = growth inhibition of PfATP4-mutant resistant parasites – NITD609-resistant line, SYBR Green, dry powder, dose response (AID 1159571); assay type: functional, cell-based;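 also: parasites synchronized at ring stage by sorbitol before testing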

## O=C(Nc1ccc2c(c1)CCC2)c1cccc(S(=O)(=O)Nc2ccccc2Cl)c1
Caspase-3
  IC50: 70.3 µM (active)
[1]
  IC50: 92.9 µM (active)
[2]
  IC50: 6.7 µM (not active)
[3]
  IC50: 23.9 µM (active)
[4]
  IC50: 47.3 µM (active)

## CCOC(=O)Cn1c(=O)oc2cc(S(=O)(=O)NCCc3ccc(C)cc3)ccc21
Prothrombin
  IC50: > 50 µM (not active)

## COCCNC(=O)C1(CC(C)C)C=CCN1C(=O)OC (stereo unspecified)
Cytochrome P450 3A4
  AC50: 0.1 µM (inconclusive)

## CC1(C)CCCC2(C)C3C(O)CC2(C)C(O)C31 (stereo unspecified)
Cytochrome P450 3A4
  AC50: 31.6 µM (inconclusive)

## CCOC(=O)C1=CC(OC(CC)CC)C(NC(C)=O)C(N)C1 (stereo unspecified)
Cytochrome P450 3A4
  AC50: 25.1 µM (inconclusive)

## CCN(CC)C(=O)Cn1cc(C(=O)C(=O)NCCCn2ccnc2)c2ccccc21
Prothrombin
  IC50: > 50 µM (not active)

## COc1ccc(Cl)cc1N(CC(=O)NC(C)(C)C)S(=O)(=O)c1ccc(C)c([N+](=O)[O-])c1
[2]
  IC50: 12.7 µM (not active)

## Nc1nc(-c2ccco2)nn1C(=O)c1cccnc1
Prothrombin
  IC50: 0.589 µM (active)

## CC(C)(C)c1ccc(-c2cc(C(=O)NNC(=O)Nc3ccccc3)c3ccccc3n2)cc1
HeLa
  AC50: 69.9 µM (active)

## Cc1c(C(=O)N2c3ccccc3Sc3ccccc32)cccc1[N+](=O)[O-]
[2]
  IC50: 2.4 µM (not active)

## COc1ccc(C(=O)N(Cc2nc(-c3ccc(C)cc3)no2)C2CCCCC2)cc1OC
[2]
  IC50: 10.8 µM (not active)
[5]
  EC50: 8.02 µM (active)

## O=C(N/N=C\c1ccccc1O)c1ccccc1O
Cytochrome P450 3A4
  AC50: 6.31 µM (inconclusive)

## NC(=NOC(=O)c1cccc(Cl)c1)c1cccnc1
Prothrombin
  IC50: > 50 µM (not active)
Protein skinhead-1
  IC50: 86.4 µM (inactive)

## COc1ccccc1N1CCN(CC(O)COc2ccc3c(c2)OCO3)CC1 (stereo unspecified)
[2]
  IC50: > 50 µM (not active)

## CCCC(=O)n1nc(-c2ccc(C)cc2)nc1NCc1ccco1
Prothrombin
  IC50: 11.1 µM (active)

## COc1ccc(/N=c2\ssnc2Cl)cn1
[6]
  IC50: 29.8 µM (active)

## Cc1cc(/N=c2\ssnc2Cl)n[nH]1
[6]
  IC50: 5.94 µM (active)

## COC(=O)c1ccc2[nH]c(C3(O)CCCCC3)c(C)c2c1
HeLa
  AC50: 44.3 µM (active)

## O=C(N/N=C/c1cccc2cccnc12)[C@H]1C[C@@H]1c1ccccc1
[7]
  CC50: 32.9 µM (active)
H9c2
  IC50: 11.2 µM (active)
[8]
  CC50: > 20 µM (active)
cells
  IC50: 33.1 µM (active)
[9]
  CC50: > 40 µM (active)

## COc1ccc2c3c(n(C)c2c1)[C@@H](CO)N(C(=O)CN(C)C)CC31CCN(Cc2cccnc2)CC1
[10]
  AC50: 2.61 µM (active)
[11]
  AC50: 2.9 µM (active)
[12]
  AC50: 2.3 µM (active)
[13]
  AC50: 64.4 µM (active)
[14]
  AC50: > 39 µM (inactive)
[15]
  AC50: 4.01 µM (active)

## Cc1ccc(O)c(/N=N\c2ccccc2)n1
Cytochrome P450 3A4
  AC50: 5.01 µM (inconclusive)
